One data set has as its system Pkd2-KO mice. The data set can be described thus: Previous study of tool anti-miR-17 in Pkd2-KO mice. The conditions noted are these: 20 mg/kg. It counts as in vivo, mouse. The protocol: (§1) Previous studies using a research tool anti-miR-17 compound identified a role for miR-17 in PKD in two different models of PKD, the Pkd2-KO model (also known as the Pkhd1/cre; Pkd2^F/F model) and the Pcy model. The research tool modified oligonucleotide complementary to miR-17 was tested in mouse models of PKD. The anti-miR-17 compound was a fully phosphorothioated oligonucleotide 19 linked nucleosides in length (5′-CTGCACTGTAAGCACTTTG-3′; SEQ ID NO: 7), with DNA, 2′-MOE and S-cEt sugar moieties.
Pkd2-KO mice spontaneously develop polycystic kidney disease. Mice were treated with 20 mg/kg of tool anti-miR-17 compound or control oligonucleotide, or with PBS.

A further data set has as its system miR-17 family. As to the kind of experiment: In vitro assays of tool compound against miR-17 family. The protocol: as §1
The next data set has as its system Pcy mice. As to the kind of experiment: Previous study of tool anti-miR-17 in Pcy mice. In kind it is in vivo, mouse. The conditions noted are these: 50 mg/kg once weekly for 26 weeks. The protocol: as §1
Pcy mice bearing a mutation in Nphp3 spontaneously develop polycystic kidney disease, with a slower progression of disease than that observed in the Pkd2-KO mice. Mice were treated with 50 mg/kg of tool anti-miR-17 compound, or with PBS, once weekly for a total of 26 weeks. The mean ratio of kidney weight to body weight in the Pcy mice treated with anti-miR-17 was 19% lower than the mean ratio of kidney weight to body weight in the Pcy mice administered PBS only (p=0.0003).

The subject of another data set is IFIT3 expression. The data set can be described thus: Ex vivo liver slice assay. It counts as cell-based. The conditions noted are these: rat liver slice; 24-hour incubation; relative to PBS. As for the experimental part:
In in vitro assays, the potential for toxicity was assessed using a biochemical fluorescent binding assay (FBA) and a liver or kidney slice assay. The FBA is performed by incubating a fluorescent dye with each compound, and immediately measuring fluorescence. Highly fluorescent compounds have the potential to produce toxicity in vivo. The liver or kidney slice assay is performed by incubating a slice of tissue from a core liver sample isolated from rat. Following a 24-hour incubation, RNA is extracted from the tissue slice, and the expression levels of 18 pro-inflammatory genes are measured. An induction in pro-inflammatory gene expression indicates a potential for pro-inflammatory effects in vivo.
Ex vivo assays were performed with liver or kidney tissue slices. The liver or kidney slice assay is performed by incubating a slice of tissue from a core liver or kidney sample isolated from rat. Following a 24-hour incubation, RNA is extracted from the tissue slice, and the expression levels of 18 pro-inflammatory genes, including IFIT, are measured. A log 2 transformation of the fold change (Log2-FC) relative to PBS treatment was performed. An induction in pro-inflammatory gene expression indicates a potential for pro-inflammatory effects in vivo.

A short description of data set [1]: In vitro metabolic stability in mouse liver lysate. It counts as in vitro ADME. The conditions noted are these: 24-hour incubation of RG4326. The protocol: Metabolic stability was evaluated by incubating each anti-miR-17 compound in a mouse liver lysate. After 24 hours, the percentage of intact compound remaining is calculated. Compounds that are not stable following a 24-hour incubation are potentially not stable in vivo.
(§2) Due to their reduced capacity for serum protein binding, which is a property that drives oligonucleotide distribution in the body, short oligonucleotides are not necessarily expected to have pharmacokinetic properties that make them suitable for use as drugs. RG4326 was incubated in mouse, monkey or human liver homogenate. The identity and concentration of RG4326 and metabolites was determined after a 24-hour incubation. RG4326 and metabolites were extracted using liquid-liquid extraction (LLE) and/or solid-phase extraction (SPE), which were then analyzed for identity and concentration using ion-pairing-reversed-phase high performance liquid chromatography coupled with time-of-flight mass spectrometry (IP—RP-HPLC-TOF).

Data set [2] is described as follows: Metabolic stability in liver homogenate, summary over species. It counts as in vitro ADME. The conditions noted are these: mouse, monkey or human liver homogenate. The protocol:
as §2

The next data set deals with miR-106b. The data set can be described thus: miR-106b luciferase reporter assay in HeLa cells. It counts as cell-based. The conditions noted are these: anti-miR-17 at 100 nm. As for the experimental part: Additional in vitro assays were conducted to further explore the potency of RG4326. A luciferase reporter assay was used to test the ability of RG4326 to inhibit the miR-17 family members miR-17, miR-20a, miR-93, and miR-106b. A luciferase reporter plasmid for each of miR-20a, miR-93, and miR-106b was constructed, with a fully complementary microRNA binding site in the 3′-UTR of the luciferase gene. HeLa cells were transfected with the microRNA mimic and its cognate luciferase reporter, followed by transfection with anti-miR-17 at a dose of 100 nm. […] As RG4326 is 100% complementary to the other miR-17 family members not tested, miR-20b and […], it is expected to inhibit these microRNAs as well.

The next data set can be described thus: Viscosity. It counts as physicochemical. The conditions noted are these: approximately 150 mg/mL in water at 20° C. As for the experimental part:
RG4326 has the following sequence and chemical modification pattern: ASGSCMAFCFUFUMUSGS where nucleosides followed by subscript “M” are 2′-O-methyl nucleosides, nucleosides followed by subscript “F” are 2′-fluoro nucleosides, nucleosides followed by subscript “S” are S-cEt nucleosides, each cytosine is a non-methylated cytosine and all linkages are phosphorothioate linkages. […] Additionally, the viscosity of RG4326 was determined to be 6 cP at a concentration of approximately 150 mg/mL (in water at 20° C.), thus RG4326 in solution is suitable for administration by subcutaneous injection.

Data set [3] in a line: In vitro metabolic stability in human liver lysate. It counts as in vitro ADME. The conditions noted are these: 24-hour incubation of RG4326. The protocol: as §2
The next data set deals with IFIT. As to the kind of experiment: In vivo acute assay in Sv129 mice. On the set-up: species or system mouse. The conditions noted are these: single s.c. 300 mg/kg, four days, relative to PBS. As for the experimental part: Additional in vivo toxicology assessments were performed by administering to normal mice (Sv129 mice) a single subcutaneous injection of 300 mg/kg of anti-miR-17 compound. After four days, mice were sacrificed, blood was collected for serum chemistry analysis, liver and spleen were weighed, and RNA was isolated from kidney and liver tissues. The expression level of a pro-inflammatory gene, interferon-induced protein with tetratricopeptide repeats (IFIT), was measured.
An in vivo assay was performed in normal, Sv129 mice. A single, subcutaneous dose of 300 mg/kg of RG4326 was administered. Included as control treatments were PBS, and two anti-miRs not related to miR-17, one known to be pro-inflammatory (positive control) and one that is not pro-inflammatory (negative control). Four days later, mice were sacrificed. Kidney and liver tissue was isolated for RNA extraction. The level of a gene known to be induced during an inflammatory response, IFIT, was measured and normalized to mouse GAPDH. A log 2 transformation of the fold change (Log2-FC) relative to PBS treatment was performed.

Take “5′-CTGCACTGTAAGCACTTTG-3′ (all phosphorothioate, sugars by position and methylation of C not given here; DNA, 2'-MOE and S-cEt sugars) [Tool anti-miR-17, reference compound]”: in the data set on Pkd2-KO mice, the “BUN and expression of kidney injury mRNA biomarkers Kim1 and Nga1 (in words)” value is “significantly reduced”; the “serum creatinine level and cyst index (in words)” value was “trend toward reduced”. In the data set on Pkd2-KO mice (p=0.017), the “kidney-to-body weight ratio reduced relative to control treatment” value amounted to 17%. Besides, in the data set with miR-17 family, the “inhibition of miR-17 family members (in words)” value was “hybridizes to and inhibits all members of the miR-17 family”. In addition, in the data set on Pcy mice (p=0.0003), the “mean ratio of kidney weight to body weight lower than PBS only” value turned out to be 19%. The “mean reduction in cyst index compared to PBS only” value with Pcy mice (p=0.008) stood at 28%.
As for `COC1C(OP(=O)(S)OC[C@H]2O[C@@H](n3cnc4c(N)ncnc43)C(F)C2OP(=O)(S)OC[C@H]2O[C@@H](n3ccc(N)nc3=O)C(F)C2OP(=O)(S)OC[C@H]2O[C@@H](n3ccc(=O)[nH]c3=O)C(F)C2OP(=O)(S)OC[C@H]2O[C@@H](n3ccc(=O)[nH]c3=O)C(OC)C2OP(=O)(S)OC[C@]23O[C@@H](n4ccc(=O)[nH]c4=O)C(O[C@H]2C)C3OP(=O)(S)OC[C@]23O[C@@H](n4cnc5c(=O)[nH]c(N)nc54)C(O[C@H]2C)C3O)[C@@H](COP(=O)(S)OC2C3O[C@@H](C)[C@]2(COP(=O)(S)OC2C4O[C@@H](C)[C@]2(CO)O[C@H]4n2cnc4c(N)ncnc42)O[C@H]3n2cnc3c(=O)[nH]c(N)nc32)O[C@H]1n1ccc(N)nc1=O` (stereo in doubt) [RG4326, ASGSCMAFCFUFUMUSGS], the “Ex Vivo Liver Slices Assay IFIT3 expression (Log2-FC)” value in the data set on IFIT3 expression is on record as 1.11 ± 0.32 Log2-FC. In data set [1], the “Ex Vivo Liver Lysate (% Analyte), Mouse” value stood at 99.1%. The “parent compound remaining intact after the 24-hour incubation” value in data set [2] was “over 95%”. Also, the “Mean luciferase fold derepression, miR-106b” value in the data set on miR-106b stood at 17.7. Further, in “Viscosity”, the viscosity is 6 cP. For the same compound, the “Ex Vivo Liver Lysate (% Analyte), Human” value in data set [3] is listed as 98.7%. Moreover, in the data set with IFIT, the “In Vivo Acute Assay Kidney IFIT expression (Log2-FC)” value was 0.34 (n = 1) Log2-FC and the “In Vivo Acute Assay Liver IFIT expression (Log2-FC)” value came to 0.21 ± 0.08 Log2-FC.

(Values after US20250333745A1, “METHODS AND COMPOSITIONS FOR TREATMENT OF POLYCYSTIC KIDNEY DISEASE” (Regulus Therapeutics Inc., priority 2016, published 2025).)
